Laboratory results published in publication PMC6893741, “Docosahexaenoic Acid Inhibits PTP1B Phosphatase and the Viability of MCF-7 Breast Cancer Cells” (Nutrients, 2019).

Molecular target: T1, Protein tyrosine phosphatase 1B (PTP1B) (Homo sapiens, UniProt P18031)
T1 construct: gene PTPN1; recombinant PTP1B
T1 sequence (P18031 1-435): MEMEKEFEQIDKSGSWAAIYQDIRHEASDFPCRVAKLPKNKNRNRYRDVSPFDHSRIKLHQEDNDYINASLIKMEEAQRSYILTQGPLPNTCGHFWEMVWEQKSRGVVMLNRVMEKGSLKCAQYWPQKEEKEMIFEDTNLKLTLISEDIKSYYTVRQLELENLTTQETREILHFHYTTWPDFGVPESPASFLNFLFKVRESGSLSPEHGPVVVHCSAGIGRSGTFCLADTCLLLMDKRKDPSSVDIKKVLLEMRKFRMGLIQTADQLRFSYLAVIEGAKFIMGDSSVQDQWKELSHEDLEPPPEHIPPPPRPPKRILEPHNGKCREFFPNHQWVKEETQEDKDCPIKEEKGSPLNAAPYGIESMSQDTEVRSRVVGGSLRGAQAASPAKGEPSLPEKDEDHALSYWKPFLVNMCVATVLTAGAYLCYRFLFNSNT
Assay: recombinant PTP1B activity assay with pNPP, absorbance at […] nm, […] min incubation
Format: biochemical

IC50: 174 ± 25.5 µM
SMILES: CC/C=C\C/C=C\C/C=C\C/C=C\C/C=C\C/C=C\CCC(=O)O [DHA, docosahexaenoic acid]
